# According to PMC9230201, “Sustained Consumption of a Decaffeinated Green Coffee Nutraceutical Has Limited Effects on Phenolic Metabolism and Bioavailability in Overweight/Obese Subjects” (Nutrients, 2022):
# Assays:
# [1] = Fecal excretion of phenolic metabolites after intake of the GCPE nutraceutical; conditions: feces
# Description: (§1) Participants attended the Human Nutrition Unit (HNU) at the Institute of Food Science, Technology and Nutrition (ICTAN-CSIC) on two consecutive days at the beginning of the intervention (week 0) and also on two consecutive days at the end of the study, after consuming daily two doses of the GCPE nutraceutical, providing 600 mg/d phenols, during two months (week 8). […] A licensed health care professional placed an intravenous catheter in the subjects′ nondominant arm and collected a fasting blood sample (baseline, 0 h). Then, subjects drank the soluble GCPE nutraceutical dissolved in 200 mL of water. […] On the sampling days, volunteers remained at the HNU, where a (poly)phenol-free diet was provided. Half an hour after consuming the nutraceutical, volunteers ate a breakfast consisting of ham, cheese, white bread, and a yogurt. Lunch (paella, bread, and yogurt) and an afternoon snack (muffin and yogurt) were eaten 5 and 9 h, respectively, after consuming the nutraceutical. Water and isotonic beverages were freely available. […] The same protocol was followed during visits at the end of the 8-week intervention. On each occasion, two days before each visit to the HNU, subjects consumed a low (poly)phenol diet free of foods containing hydroxycinnamates such as coffee, herbal teas, red wine, artichokes, whole grain cereals, vegetables, fruits and fruit juices, and dried fruits. Only banana, watermelon, cantaloupes, and potatoes were allowed.
# (§2) Blood samples were immediately centrifuged (10 min, 3000 rpm, 4 °C) to obtain plasma. […] All biological samples were stored at −80 °C until analysis.
# (§3) To extract plasma metabolites, 10 µL of 50% (v/v) aqueous formic acid, and 900 µL cold acetonitrile containing 50 µL of 10% (w/v) ascorbic acid were added to 400 µL defrosted plasma. Samples were vortexed and centrifuged (14,000 rpm, 10 min, 4 °C), repeating the extraction and combining the two supernatants, which were reduced to dryness under nitrogen [13]. Dried samples were resuspended in 150 µL of 0.1% aqueous formic acid (containing 10% acetonitrile acidified with 0.1% formic acid), centrifuged (15 min, 14,000 rpm, 4 °C), and the supernatant collected. Urine samples were diluted 1:1 with Milli-Q water and centrifuged (14,000 rpm, 20 min, 4 °C) prior to analysis. Phosphate-buffered saline (3 mL) was added to a representative 300 mg sample of thawed feces, homogenized in an ultrasound bath during 10 min, centrifuged (14,000 rpm, 20 min, 4 °C), and the supernatants collected.
# (§4) Mobile phase A was 0.1% formic acid in Milli-Q water, and mobile phase B was acetonitrile containing 0.1% formic acid at a 0.3 mL/min flow rate. […] Metabolites were identified based on their retention time using authentic standards when possible. […] Urine concentration of excreted metabolites was normalized to the total volume excreted in each studied interval.
# (§5) Plasma (30 µL), urine (5 µL) and fecal extracts (5 µL) were filtered through 0.45 µm
# (§6) cellulose-acetate membrane filters and injected into an Agilent 1200 series LC system
# (§7) ESI-Jet Stream Technology (Agilent Technologies). A reverse-phase Ascentis Express
# (§8) C18 (15 cm x 3 mm, 2.7 µm) column (Sigma-Aldrich Quimica, Madrid), preceded by a
# (§9) phase A was 0.1% formic acid in Milli-Q water, and mobile phase B was acetonitrile
# (§10) containing 0.1% formic acid at a 0.3 mL/min flow rate. The gradient started with 10% B
# (§11) at 0 min, 30% B at 10 min, 40% B at 15 min, reaching 50% B at 20 min. The starting
# (§12) gradient was then re-established in 2 min and maintained for 8 min to re-equilibrate the
# [2] = Urinary excretion of phenolic metabolites after intake of the GCPE nutraceutical; conditions: for Cumulative urinary excretion, Total 0–24 h / Urinary excretion: urine; for Cumulative urinary excretion, Total 0–24 h: mean ± SEM, n = 9
# Description: as §1, §2, §3, §4, §5, §6, §7, §8, §9, §10, §11, §12
# [3] = Plasma pharmacokinetics of phenolic metabolites after intake of the GCPE nutraceutical (LC-MS-QToF); conditions: for AUC(0-t) / Tmax: 300 mg hydroxycinnamic acids; for AUC(0-t): AUC0–24h; for Tmax: Tmax (h) or Range; for Cmax: mean ± SEM, n = 9
# [4] = human, oral, week 0, first peak where biphasic
# [5] = human, oral, week 8, first peak where biphasic
# [6] = human, oral, 300 mg, Cmax, week 0, GCPE nutraceutical with 300 mg hydroxycinnamic acids
# [7] = human, oral, 300 mg, Cmax, week 8, GCPE nutraceutical with 300 mg hydroxycinnamic acids
# [8] = week 8, listed as 3′-hydroxyphenylacetic acid
# [9] = week 0, GCPE nutraceutical with 300 mg hydroxycinnamic acids
# [10] = week 0, first peak where biphasic
# [11] = week 8, GCPE nutraceutical with 300 mg hydroxycinnamic acids
# [12] = week 8, first peak where biphasic
Compound,"Amount of fecal metabolite excreted at 0 h ([1]; week 0, mean ± SEM, n = 9) [µmol/g]",Amount of fecal metabolite excreted at 0 h ([1]; week 8) [µmol/g],Amount of fecal metabolite excreted at 24 h ([1]; week 0) [µmol/g],Amount of fecal metabolite excreted at 24 h ([1]; week 8) [µmol/g],"Cumulative urinary excretion, Total 0–24 h ([2]; week 0) [µmol]","Cumulative urinary excretion, Total 0–24 h ([2]; week 8) [µmol]","Amount excreted in urine, 0- 3 h ([2]; week 0, interval 0–3 h) [µmol]","Amount excreted in urine, 3-6 h ([2]; week 0, interval 3–6 h) [µmol]","Amount excreted in urine, 6-9 h ([2]; week 0, interval 6–9 h) [µmol]","Amount excreted in urine, 9-11 h ([2]; week 0, interval 9–11 h) [µmol]","Amount excreted in urine, 11-24 h ([2]; week 0, interval 11–24 h) [µmol]","Amount excreted in urine, 0- 3 h ([2]; week 8, interval 0–3 h) [µmol]","Amount excreted in urine, 3-6 h ([2]; week 8, interval 3–6 h) [µmol]","Amount excreted in urine, 6-9 h ([2]; week 8, interval 6–9 h) [µmol]","Amount excreted in urine, 9-11 h ([2]; week 8, interval 9–11 h) [µmol]","Amount excreted in urine, 11-24 h ([2]; week 8, interval 11–24 h) [µmol]","AUC(0-t) ([3]; human, oral, week 0) [µM·h]","AUC(0-t) ([3]; human, oral, week 8) [µM·h]","Tmax [3, 4] [h]","Tmax [3, 5] [h]",further results
O=C(O)c1cccc(O)c1 [3-Hydroxybenzoic acid],0.03 ± 0.02,0.020 ± 0.008,0.03 ± 0.01,0.020 ± 0.007,0.91 ± 0.07,1.0 ± 0.1,0.09 ± 0.02,0.05 ± 0.01,0.08 ± 0.02,0.064 ± 0.009,0.26 ± 0.02,0.1 ± 0.01,0.06 ± 0.01,0.11 ± 0.02,0.07 ± 0.02,0.19 ± 0.04,0.7 ± 0.3,0.8 ± 0.3,8 ± 1,4 ± 1,"Cmax [3, 6]: 80 ± 20 nM; Cmax [3, 7]: 100 ± 30 nM"
O=C(O)Cc1cccc(O)c1 [3′-Hydroxyphenylacetic acid],0.31 ± 0.09,0.18 ± 0.08,0.21 ± 0.08,0.11 ± 0.04,12 ± 3,9 ± 2,1.6 ± 0.5,1 ± 0.2,0.8 ± 0.2,0.53 ± 0.09,2.5 ± 0.7,1 ± 0.2,0.7 ± 0.2,0.7 ± 0.1,0.6 ± 0.2,1.8 ± 0.6,–,–,–,–,"Amount of fecal metabolite excreted at 0 h ([1]; week 0, mean ± SEM, n = 9, listed as 3′-hydroxyphenylacetic acid): 0.31 µmol/g; Amount of fecal metabolite excreted at 0 h [1, 8]: 0.18 µmol/g; Amount of fecal metabolite excreted at 24 h ([1]; week 0, listed as 3′-hydroxyphenylacetic acid): 0.21 µmol/g; Amount of fecal metabolite excreted at 24 h [1, 8]: 0.11 µmol/g; Amount excreted in urine, TOTAL ([2]; week 0, Table S5 total): 12 ± 3 µmol; AUC0–24h ([3]; week 0): 2.6 ± 0.9 µM/min; Cmax [3, 9]: 200 ± 70 nM; Tmax (h) or Range [3, 10]: 8 ± 2 h; AUC0–24h ([3]; week 8): 1.6 ± 0.6 µM/min; Cmax [3, 11]: 150 ± 50 nM; Tmax (h) or Range [3, 12]: 5 ± 1 h"
COc1cc(/C=C/C(=O)OC2[C@H](O)CC(O)(C(=O)O)C[C@H]2O)ccc1O (stereo partly shown) [4-Feruloylquinic acid],–,0.001 ± 0.001,–,0.0004 ± 0.0004,0.4 ± 0.2,0.4 ± 0.1,0.2 ± 0.1,0.15 ± 0.05,0.02 ± 0.01,0.003 ± 0.002,–,0.21 ± 0.08,0.13 ± 0.03,0.03 ± 0.01,–,0.02 ± 0.02,–,–,–,–,"AUC0–24h ([3]; week 0): 0.06 ± 0.01 µM/min; Cmax [3, 9]: 29 ± 4 nM; Tmax (h) or Range [3, 10]: 0.9 ± 0.1 h; AUC0–24h ([3]; week 8): 0.07 ± 0.01 µM/min; Cmax [3, 11]: 31 ± 4 nM; Tmax (h) or Range [3, 12]: 0.9 ± 0.1 h"
COc1cc(C(=O)O)ccc1O [4-Hydroxy-3-methoxybenzoic acid],0.06 ± 0.03,0.006 ± 0.006,–,–,–,–,–,–,–,–,–,–,–,–,–,–,9 ± 2,14 ± 4,7 ± 3,7 ± 2,"Cmax [3, 6]: 1100 ± 200 nM; Cmax [3, 7]: 1600 ± 400 nM"

# Continued, in another order:
"Amount of fecal metabolite excreted at 0 h ([1]; week 0, mean ± SEM, n = 9) [µmol/g]",Amount of fecal metabolite excreted at 0 h ([1]; week 8) [µmol/g],Amount of fecal metabolite excreted at 24 h ([1]; week 0) [µmol/g],Amount of fecal metabolite excreted at 24 h ([1]; week 8) [µmol/g],"Cumulative urinary excretion, Total 0–24 h ([2]; week 0) [µmol]","Cumulative urinary excretion, Total 0–24 h ([2]; week 8) [µmol]","Amount excreted in urine, 0- 3 h ([2]; week 0, interval 0–3 h) [µmol]","Amount excreted in urine, 3-6 h ([2]; week 0, interval 3–6 h) [µmol]","Amount excreted in urine, 6-9 h ([2]; week 0, interval 6–9 h) [µmol]","Amount excreted in urine, 9-11 h ([2]; week 0, interval 9–11 h) [µmol]","Amount excreted in urine, 11-24 h ([2]; week 0, interval 11–24 h) [µmol]","Amount excreted in urine, 0- 3 h ([2]; week 8, interval 0–3 h) [µmol]","Amount excreted in urine, 3-6 h ([2]; week 8, interval 3–6 h) [µmol]","Amount excreted in urine, 6-9 h ([2]; week 8, interval 6–9 h) [µmol]","Amount excreted in urine, 9-11 h ([2]; week 8, interval 9–11 h) [µmol]","Amount excreted in urine, 11-24 h ([2]; week 8, interval 11–24 h) [µmol]",Compound,"AUC(0-t) ([3]; human, oral, week 0) [µM·h]","AUC(0-t) ([3]; human, oral, week 8) [µM·h]","Tmax [3, 4] [h]","Tmax [3, 5] [h]",further results
0.004 ± 0.004,0.006 ± 0.004,0.0006 ± 0.0004,0.01 ± 0.01,1.3 ± 0.2,1.01 ± 0.09,0.3 ± 0.2,0.11 ± 0.02,0.1 ± 0.02,0.09 ± 0.01,0.29 ± 0.04,0.14 ± 0.02,0.1 ± 0.01,0.09 ± 0.02,0.08 ± 0.02,0.26 ± 0.03,O=C(O)c1ccc(O)cc1 [4-Hydroxybenzoic acid],0.9 ± 0.2,0.5 ± 0.2,7 ± 2,5 ± 3,"Urinary excretion ([2]; week 0): 1.3 µmol/24 h; Urinary excretion ([2]; week 8): 1.01 µmol/24 h; Cmax [3, 6]: 90 ± 10 nM; Cmax [3, 7]: 80 ± 10 nM"
0.04 ± 0.01,0.06 ± 0.02,0.05 ± 0.01,0.08 ± 0.02,0.03 ± 0.02,0.03 ± 0.01,0.012 ± 0.006,0.005 ± 0.003,0.003 ± 0.002,0.003 ± 0.002,0.01 ± 0.004,0.004 ± 0.003,0.002 ± 0.001,0.002 ± 0.002,0.002 ± 0.002,0.015 ± 0.008,O=C(CCc1ccc(O)c(O)c1)OC1CC(O)(C(=O)O)CC(O)C1O (stereo not shown) [5-Dihydrocaffeoylquinic acid],–,–,–,–,–
–,0.003 ± 0.002,0.0003 ± 0.0003,0.003 ± 0.003,0.42 ± 0.06,0.45 ± 0.09,0.13 ± 0.03,0.08 ± 0.02,0.08 ± 0.03,0.023 ± 0.008,0.12 ± 0.02,0.12 ± 0.03,0.06 ± 0.01,0.11 ± 0.02,0.06 ± 0.03,0.11 ± 0.03,"O=C(O)/C=C/c1ccc(O)c(O)c1 [CA, 3′,4′-Dihydroxycinnamic acid]",–,–,–,–,–
0.005 ± 0.003,0.006 ± 0.006,0.005 ± 0.005,0.014 ± 0.005,4 ± 1,6 ± 2,0.16 ± 0.04,0.09 ± 0.02,0.5 ± 0.2,0.6 ± 0.2,1.4 ± 0.4,0.4 ± 0.2,0.3 ± 0.1,0.9 ± 0.3,0.8 ± 0.3,1 ± 0.2,"O=C(O)CCc1ccc(O)cc1 [DHCoA, 3-(4′-Hydroxyphenyl)propanoic acid]",–,–,–,–,Urinary excretion ([2]; week 0): 4 µmol/24 h; Urinary excretion ([2]; week 8): 6 µmol/24 h
